# Experimental data: article PMC11608315, “Subtilase SBT5.2 inactivates flagellin immunogenicity in the plant apoplast” (Nature Communications, 2024)
# No end group written: not given here.
# Assays:
# [1] = system: AF of sbt5.2 mutant N. benthamiana; format: in vitro ADME, Nicotiana benthamiana; conditions: 10 µM QP; n = 4; Fig. 5b
# Experimental: (§1) The quenched peptides (QPs) from flagellin were commercially synthesised with a DABCYL N-terminal modification and a Glu-EDANS C-terminal modification (GenScript, Piscataway, New Jersey, United States) at a purity of 95% (Supplementary Table 2). They were resuspended in DMSO at a concentration of 1 mM. This stock solution was further diluted in water to a concentration of 200 µM. AFs or purified SBT5.2a were mixed with QPs at a final concentration of 10 µM in a volume of 100 µl, and fluorescence was measured immediately at 21 °C using an Infinite M200 plate reader (Tecan, Mannedorf, Switzerland) every minute over 5 min with an excitation wavelength of 335 nm and emission wavelength of 493 nm.
# (§2) N. benthamiana leaves were submerged in ice-cold water and vacuum infiltrated in a 50 ml syringe with a plunger. The surface of water-infiltrated leaves was dried with absorbing paper and leaves were carefully inserted into an empty 20 ml syringe, which was placed in a 50 ml tube. AFs were collected by centrifugation at 2000 × g at 4 °C for 10 min. AFs were immediately used or frozen using liquid nitrogen and stored at −20 °C until use.
# [2] = system: subtilases (SBTs), papain-like Cys proteases (PLCPs) and metalloproteases in AF; assay: QP processing in AF of leaves expressing protease inhibitors Epi1, SlCys8 or HsTIMP; format: biochemical, Nicotiana benthamiana; conditions: AF from leaves transiently expressing Epi1 (HsTIMP for comparison); EV = 100%; n = 3; Fig. 3a
# Experimental: (§3) Agrobacterium tumefaciens GV3101 (pMP90) was used for agroinfiltration of N. benthamiana. Agrobacteria were grown overnight in Luria-Bertani (LB) medium with 10 μg/ml gentamycin and 50 μg/ml kanamycin at 28 °C. For transient expression of proteins in N. benthamiana, overnight cultures of Agrobacterium carrying binary vectors listed in Supplementary Table 1 were harvested by centrifugation. Bacterial cells were resuspended in agroinfiltration buffer (10 mM MgCl2, 10 mM MES pH 5.6, 150 μM acetosyringone) and mixed (1:1) with agrobacteria carrying the silencing inhibitor p19 at an OD600 of 0.5. After 1 h at 28 °C, cells were infiltrated into leaves of 4-week-old N. benthamiana. The infected plants were grown in a growth chamber until use.
# as §1, with “This stock solution was further diluted in water to a concentration of 200 µM.” left out, “nm. […]” for “nm.”
# [3] = Solubility of quenched peptide (observation on dissolving the powder); format: physicochemical; conditions: noticed when dissolving the peptide powder; response to reviewers
# [4] = system: SBT5.2, SBT1.9a, SBT1.7a, SBT1.7c in AF; assay: QP processing in AF of plants silenced for subtilases (VIGS); format: in vitro ADME, Nicotiana benthamiana; conditions: 10 µM QP; TRV::GFP = 100%; n = 3 plants; Fig. 4a
# Experimental: as §1
# (§4) Agrobacterium cultures were grown overnight and resuspended in an agroinfiltration buffer at OD600 = 0.5. Agrobacteria carrying binary plasmids for expressing RNA2 of TRV-carrying silencing fragments (Supplementary Table 1) were mixed 1:1 with Agrobacteria containing TRV1[38]. After incubation for 1 h at 21 °C, the mixed cultures were infiltrated into the leaves of 14-day-old N. benthamiana plants. The infiltrated plants were grown for another 4 to 5 weeks in a growth chamber until use.
# N. benthamiana leaves were submerged in ice-cold water and vacuum infiltrated in a 50 ml syringe with a plunger. […]
# purified SBT5.2a-His [5] = assay: QP cleavage by purified SBT5.2a-His (fluorescence); format: biochemical, Nicotiana benthamiana; conditions: 10 μl of 25 μg/ml SBT5.2a-His, 10 µM QP; n = 4; Fig. 6a
# Experimental: as §1
# (§5) Four-week-old N. benthamiana leaves were infiltrated with a 1:1 mixture (final OD600 = 0.5 for each) of Agrobacterium tumefaciens GV3101 containing the silencing suppressor P19 and pPB097[22]. Apoplastic fluid containing SBT5.2a-His was extracted 6 days after infiltration as described above and purified as previously described[40],[41]. Briefly, SBT5.2a-His was purified by HisPur™ Ni-NTA resin and concentrated in 25 mM Tris-HCl pH = 6.8 using a 50 kDa MWCO Amicon Ultra-15 filter.
# purified SBT5.2a-His [6] = assay: Residual immunogenicity (ROS assay) after incubation with purified SBT5.2a-His; format: biochemical, Nicotiana benthamiana; conditions: 50 nM flg22, 10 μg/ml SBT5.2a-His, 40 min; ROS read-out, n = 6; Fig. 6b
# Experimental: as §5
# (§6) ROS assays were performed as described previously. Briefly, after incubation in water overnight, one leaf disc (6 mm diameter) was added to 100 µl solution containing 25 ng/µl luminol, 25 ng/µl Horse Radish Peroxidase (HRP) and specified elicitor treatments. For assays with treated elicitors, elicitor peptides or purified flagellin were incubated in AFs from N. benthamiana leaves (wild-type, agroinfiltrated, VIGS-silenced or sbt5.2 mutants) or purified SBT5.2a-HIS for the specified time at 21 °C. After incubation, 25 ng/µl luminol and 25 ng/µl HRP were added to the AFs. Chemiluminescence was measured immediately with the Infinite M200 plate reader (Tecan, Mannedorf, Switzerland) every minute for one hour. Standard errors were calculated at each time point and for each treatment.
# [7] = system: subtilases in AF of N. benthamiana; assay: Residual immunogenicity (ROS assay) after incubation in AF of leaves transiently expressing Epi1 or empty vector; format: in vitro ADME, Nicotiana benthamiana; conditions: 10 µg/ml monomeric flagellin or 100 nM flg22, 40 min in AF; ROS read-out, n = 6; Fig. 3b
# Experimental: as §3
# as §2, with “AFs were immediately used or frozen using liquid nitrogen and stored at −20 °C until use.” left out
# ROS assays were performed as described previously. […] Chemiluminescence was measured immediately with the Infinite M200 plate reader (Tecan, Mannedorf, Switzerland) every minute for one hour. Standard errors were calculated at each time point and for each treatment.
# [8] = system: apoplastic proteases in apoplastic fluids (AF) of N. benthamiana; assay: Residual immunogenicity (ROS assay) after incubation of elicitor in AF of WT plants; format: in vitro ADME, Nicotiana benthamiana; conditions: ROS read-out, n = 6
# Experimental: as §2, §6
# SBT5.2 subtilases in AF = assay: Residual immunogenicity (ROS assay) after incubation in AF of TRV::SBT5.2 or TRV::GFP plants; format: in vitro ADME, Nicotiana benthamiana; conditions: 100 nM flg22, 0, 30, 60 min in AF; ROS read-out, n = 6; Fig. 4b
# Experimental: as §4, §2
# ROS assays were performed as described previously. Briefly, after incubation in water overnight, one leaf disc (6 mm diameter) was added to 100 µl solution containing 25 ng/µl luminol, 25 ng/µl Horse Radish Peroxidase (HRP) and specified elicitor treatments. […] Chemiluminescence was measured immediately with the Infinite M200 plate reader (Tecan, Mannedorf, Switzerland) every minute for one hour. Standard errors were calculated at each time point and for each treatment.
# [9] = system: AF of sbt5.2 mutant N. benthamiana; format: in vitro ADME, Nicotiana benthamiana; conditions: 100 nM flg22, 30 min in AF; ROS read-out, n = 6; Fig. 5c
# Experimental: as §2, §6
# [10] = system: leaf discs of WT or sbt5.2 mutant N. benthamiana; assay: ROS burst assay on sbt5.2 mutant versus WT leaf discs (timing, dose response); format: cell-based, Nicotiana benthamiana; conditions: n = 12; Fig. 5e, 5f
# Experimental: as §6
# FLS2 = conditions: microsomal fractions that presumably lack subtilases; read-out: IC50, competition with binding by radiolabeled flg22; cited from earlier work
# Description: However, although flagellin can bind FLS2, it is unclear at this stage if it would also activate FLS2 signalling because that would require subsequent BAK1 binding to FLS2. The extension of flg22 at its C-terminus is likely to obstruct BAK1 binding, based on the structure of flg22 bound to the FLS2 and BAK1[34].
substance,measurement,setting,value
"LQIA ↓ TKITS [QP4, custom-synthesised quenched peptide with flg22-flanking site LQIA ↓ TKITS, DABCYL and Glu-EDANS]",QP processing in AF of sbt5.2 mutant plants versus WT,[1],strongly reduced but not significant
same,QP processing in AF containing Epi1,[2],near complete blockage
same,solubility,[3],problematic
"SAKDDAAG [QP3, custom-synthesised quenched peptide with cleavage site SAKD ↓ DAAG within flg22, DABCYL and Glu-EDANS]",QP processing in AF of sbt5.2 mutant plants versus WT,[1],only slightly reduced
same,QP processing in AF of TRV::SBT1.9a and TRV::SBT1.7a plants,[4],also reduced
same,QP processing in AF of TRV::SBT5.2 plants compared to TRV::GFP control,[4],not as strongly reduced
same,cleavage by purified SBT5.2a-His,purified SBT5.2a-His [5],hardly cleaved
same,QP processing in AF containing Epi1,[2],suppressed more by Epi1 than by HsTIMP
"TRLSSGLKINSAKDDAAGLQIA [flg22, reference compound]",elicitor activity after incubation with purified SBT5.2a-His,purified SBT5.2a-His [6],inactivated its elicitor activity
same,immunogenic activity after incubation in AF from leaves expressing Epi1,[7],immunogenic activity was detected
same,immunogenicity after incubation in AF of WT plants,"[8]; 100 nM flg22, 30 min in AF, Fig. 5c",quickly lost
same,decline of immunogenicity in AF of TRV::SBT5.2 compared to TRV::GFP plants,SBT5.2 subtilases in AF,much slower
same,immunogenicity after incubation in AF of sbt5.2 plants,[9],retains immunogenicity significantly longer
flagellin,immunogenic activity after incubation in AF from leaves expressing Epi1,[7],immunogenic activity was detected
same,"timing and amplitude of oxidative burst, WT versus sbt5.2 mutant leaf discs",[10],similar
same,oxidative burst after incubation with AF,"[8]; 10 µg/ml monomeric flagellin incubated with AF for 30 or 60 min, 21 °C, Fig. 1e",quickly disappears
same,IC50,FLS2,120 nM
